From patent publication EP4624457A1, “I[…] DERIVATIVES, I[…] NEURODEGENERATIVE DISEASES” (Centre National de la Recherche Scientifique, priority 2024, dated 2025)
Values joined by “and” are separate entries in the source; they are usually repeats but may differ in a detail not shown here. Identical values can stand only once. Like-named read-outs stand apart in the source and are kept apart here.

Target: T1, human α7 nAChR subtype (Homo sapiens, UniProt P36544)
T1 construct: expressed in transfected cells; host or cells: Xenopus laevis oocytes injected with mRNA
T1 sequence (P36544 23-502): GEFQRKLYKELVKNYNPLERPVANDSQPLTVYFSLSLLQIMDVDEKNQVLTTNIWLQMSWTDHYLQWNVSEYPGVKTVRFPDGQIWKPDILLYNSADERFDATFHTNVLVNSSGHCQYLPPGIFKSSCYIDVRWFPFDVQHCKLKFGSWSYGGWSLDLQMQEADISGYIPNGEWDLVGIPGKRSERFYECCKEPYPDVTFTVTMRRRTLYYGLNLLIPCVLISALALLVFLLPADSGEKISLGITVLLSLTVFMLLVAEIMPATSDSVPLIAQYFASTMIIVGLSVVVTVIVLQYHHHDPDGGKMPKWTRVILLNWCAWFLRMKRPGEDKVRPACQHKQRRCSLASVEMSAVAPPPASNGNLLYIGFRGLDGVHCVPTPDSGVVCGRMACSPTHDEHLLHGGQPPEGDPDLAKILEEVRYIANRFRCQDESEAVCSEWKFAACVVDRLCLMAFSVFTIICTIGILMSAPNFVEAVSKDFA
Assay: Two-electrode voltage clamp electrophysiology on Xenopus laevis oocytes expressing the α7 nAChR
Type: cell-based
Details: for IC50: antagonistic activity, TEVC, value (95% CI), 100 µM ACh, 45 s preincubation, Figures 5 and 7
Description: The emerging cyclic imines toxins (CiTXs) of global distribution across coastal environments that are produced by dinoflagellates move fast up the human food chain through shellfish. The CiTX family includes 44 compounds: 7 gymnodimines (A-E, 12-methylgymnodimine and 16-desmethyl gymnodimine D), 16 spirolides (A-D, G-I, 13-desmethyl spirolide-C, 27-Hydroxy-13-desmethyl spirolide-C, 13,19-didesmethyl spirolide-C, 20-hydroxy-13,19-didesmethyl spirolide- C, 27-hydroxy-13,19-spirolide-C, 27-Oxo-13,19-didesmethyl spirolide-C, 13-desmethyl spirolide-D, 20-hydroxy-13,19-didesmethyl spirolide-D and 20-methyl spirolide-G), 8 pinnatoxins (A-H), 3 pteriatoxins (A-C), 6 prorocentrolides (A-B, 4- hydroxyprorocentrolide, 9,51-dihydro prorocentrolide, 30-sulfate prorocentrolide and 14-O-acetyl-4-hydroxyprorocentrolide), 1 spiroprorocentrimine, 2 portimines (A and B), and 1 kabirimine, (Aráoz et al. (2020) Cyclic imine toxins survey in coastal european shellfish samples: Bioaccumulation and mode of action of 28-O-palmitoyl ester of pinnatoxin-G. First report of portimine-A bioaccumulation. Harmful Algae, 98 [1]). The spiroimine moiety is the major feature characterizing cyclic imine toxins. The exception to this rule is prorocentrolides in which a hexahydroisoquinoline group replaces the spiroimine motif, (Torigoe et al. (1988) Prorocentrolide, a toxic nitrogenous macrocycle from a marine dinoflagellate, Prorocentrum-lima. Journal of the American Chemical Society, 110:7876-7877 [2]). Portimines display a 5-membered cyclic imine ring; gymnodimines, prorocentrolides, spiroprorocentrimines and kabirimine present a 6-membered imine ring, while spirolides, pinnatoxins and pteriatoxins display a 7-membered imine ring. Cyclic imine toxins are fast acting neurotoxins that, when administered intraperitoneally or by gavage at lethal doses, kill mice by respiratory arrest within minutes following blockade of neuromuscular nicotinic acetylcholine receptors (nAChR). The mode of action of several cyclic imines on nAChRs has been characterized, namely: gymnodimine-A, 13- desmethyl spirolide- C, 13,19-didesmethyl spirolide-C, 20-methyl spirolide-G, pinnatoxin-A, pinnatoxin-G, prorocentrolide-A and portimine, (Lamoise et al. (2017) Physico-chemical and functional characterization of portimine purified from Vulcanodinium rugosum strain IFR-VRU-01. In "Marine and Fresh-Water Harmful Algae". Proceedings of the 17th International Conference on Harmful Algae (Proença, L.A.O. and Hallegraeff, G. eds) pp. 126-129 ISSHA and IOC/UNESCO, Florianapolis; Molgó et al. (2017) Cyclic imine toxins from dinoflagellates: a growing family of potent antagonists of the nicotinic acetylcholine receptors. Journal of Neurochemistry, 142:41-51 [4]). They are potent antagonists of muscular and neuronal nicotinic acetylcholine receptors with pinnatoxin-A displaying picomolar affinities towards the α7 nicotinic acetylcholine receptor subtype (Aráoz et al. (2011) Total synthesis of pinnatoxins A and G and revision of the mode of action of pinnatoxin A. Journal of the American Chemical Society 133(27):10499-10511 [5]). In contrast, prorocentrolide and portimine show micromolar affinities towards the α7 nicotinic acetylcholine receptor subtype (Lamoise et al. (2017), Stivala et al. (2015) Synthesis and biology of cyclic imine toxins, an emerging class of potent, globally distributed marine toxins. Natural Product Reports, 32(3):411-435 [6]) (Table1). Table 1. Antagonistic activity of CiTX (Two-Electrodes Voltage Clamp electrophysiology).
• Figure 1 represents the chemical structure of ingrilimine according to compound (Illa) formula. • Figure 2 represents the cytotoxic activity of ingrilimine. A2780 ovarian and HT29 colorectal carcinoma cells were grown in RPMI 1640 supplemented with 10% fetal calf serum (FCS) and 1% glutamine. […]

SMILES | peak amplitude relative to the peak amplitude evoked by 100 µM ACh (agonist activity, 10 µM ingrilimine) [%] | behaviour at micromolar concentrations (micromolar concentrations, antagonist at nanomolar concentrations) | IC50 (nAChR subtype (nM; 95% CI) α7 (human)) | times more potent than portimine against the human α7 nAChR subtype (ratio of IC50 values) | IC50 (read-out: nAChR subtype (nM; 95% CI) α7 (human)) [nM]
C=CC1=C[C@@H]2C[C@@H](O)[C@@H](O)/C(C)=C/C/C(C)=C/CCC3=NCCC[C@]32CC1 [Ingrilimine, ingrilimine] | -25 | behaves as an agonist | 2.3 nM and 2.29 nM | ~ 10 000 times | –
C=CC1=C[C@@H]2[C@@H]3O[C@]4(CC[C@H](O4)[C@@H](C)C[C@@H](O)C3=O)C[C@H](O)C3=NCC[C@@]32CC1 [Portimine-A] | – | – | – | – | 21200
